Measurements: patent publication US12171732B2, “Compositions and use of N-chlorotaurine for treatment and prevention of respiratory infections” (priority 2021, dated 2024)
Read-outs that look alike come from different tables or passages of the source.

Experiments:
[1] = system: Influenza A/Singapore/Hongkong/2339/2000 (H1N1); type: cell-based, Influenza A virus
[2] = system: Influenza A/California/Swine Origin Virus/2009 (H1N1pdm); type: cell-based; conditions: 1.0% NCT
SARS-CoV-2 BavPat1 = experiment: Inactivation of SARS-CoV-2 by NCT, plaque titration; type: cell-based
Method: FIG. 1A presents inactivation of SARS-Cov-2 (BAvPat1) by NCT. Virus suspension (SARS-CoV-2 BavPat1) was incubated with 1.0% (55 mM) NCT, 0.1% (5.5 mM) NCT, 1.0% NCT with 5.0% peptone or PBS or 5.0% peptone for 5 min, 15 min, 30 min, or 60 min at 37° C., after which samples were diluted 1:1 in met/his solution for inactivation of NCT. Remaining infectious virus particles were determined using plaque titration. To control for inactivation of NCT by met/his, virus was added after dilution of 1.0% NCT with or without peptone in met/his. Mean values±SD of three to eight independent experiments in duplicates. The dotted line indicates the detection limit (0.84 log10). Data were statistically analyzed using a two-way ANOVA including a Dunnett's multiple comparison test to PBS controls. *p<0.05, **p<0.01, ***p<0.001, ****p<0.0001.
Inactivation of SARS-CoV-2 wild type isolates from early 2020 was assessed by incubating stock virus with NCT for indicated time periods at 37° C. and then determining the remaining infectious particles using plaque assay or immunostaining as well as determining virus inactivation via RT-qPCR or TCID50. […]
With plaque assay readout, a significant reduction in infectious particles was detected after 15 min of incubation, when incubating SARS-CoV-2 with NCT in a buffered aqueous solution (FIG. 1A). […]

SARS-CoV-2 [3] = type: in vivo, human
SARS-CoV-2 [4] = experiment: Treatment of hospitalized COVID-19 patients with NCT solution for inhalation; type: in vivo, human
Method: The effect of an inhalation solution of NCT-Na is tested in patients who suffer from COVID-19 (infection with SARS-CoV-2). The solution consists of 1% NCT sodium in distilled water.

[5] = system: SARS-CoV-2, clinical isolate; experiment: Virus inactivation assay with immunostaining readout (Vero/TMPRSS2/ACE2 cells); type: cell-based; conditions: 1% NCT, 37° C.
Method: (§1) FIG. 1C presents inactivation of SARS-Cov-2 (SARS-CoV-2, clinical isolate) by NCT. Virus suspension (SARS-CoV-2, clinical isolate) was incubated with 1% NCT or PBS for 1 min, 5 min, 7 min, 10 min, 20 min, and 30 min at 37° C. After inactivation of NCT and serial dilution, aliquots were added to Vero/TMPRSS2/ACE2 cells for 1 h in 96-well plates. Cells were washed, incubated for further 9 h, and fixed for Immunostaining (c) or RT-qPCR (d). In immunostaining, infected cells were visible as red spots and counted using an ImmunoSpot S6 Ultra-V reader and CTL analyser BioSpot® 5.0 software. Mean values±SD of three independent experiments.
(§2) Inactivation of SARS-CoV-2 wild type isolates from early 2020 was assessed by incubating stock virus with NCT for indicated time periods at 37° C. and then determining the remaining infectious particles using plaque assay or immunostaining as well as determining virus inactivation via RT-qPCR or TCID50. Exact incubation times of virus with NCT were ensured by adding met/his at the end of the incubation period, which inactivates NCT.

[6] = system: Influenza A/Panama/2007/1999 (H3N2); type: cell-based, Influenza A virus; conditions: 1.0% NCT, within 5 min, plaque assay (FIG. 2A)
[7] = system: SARS-CoV-2 hCoV-19/Australia/VIC01/2020; experiment: Inactivation of SARS-CoV-2 by NCT, plaque titration; type: cell-based; conditions: 1.0% NCT in the presence of Vero cells, 37° C. (FIG. 1B)
Method: FIG. 1B presents inactivation of SARS-Cov-2 (hCoV-19/Australia/VIC01/2020) by NCT. Virus suspension (SARS-CoV-2 h CoV-19/Australia/VIC01/2020) was incubated with NCT or PBS or isopropanol (positive control) for 5 min, 10 min, 20 min, and 60 min at 37° C. and then diluted 1:1 in met/his for inactivation of NCT, followed by plaque titration. Mean values±SD of three independent experiments. Detection limit 3.11 log10 (dotted line).
as §2
With plaque assay readout, a significant reduction in infectious particles was detected after 15 min of incubation, when incubating SARS-CoV-2 with NCT in a buffered aqueous solution (FIG. 1A). The mild oxidizing activity of the test antiseptic may explain why it took as long as 15 min to reduce infectious particles. In the presence of Vero cells (FIG. 1B) or particularly 5.0% peptone (FIG. 1A), however, a significant reduction of infectious virus particles occurred already after 5 min of incubation with 1.0% NCT. […]

RSV long strain = type: cell-based, respiratory syncytial virus
[8] = cited from earlier work
inoculated cell culture = experiment: MTT testing of cytotoxicity of inactivated NCT; type: cell-based; conditions: 0.1% NCT plus 0.1% met/his (inactivated NCT); PBS control 100.3±5.6
Excerpt: The antiviral activity was concentration-dependent. […] This was valid for all tests and viruses in this study.

[9] = system: SARS-CoV-2, clinical isolate; experiment: Virus inactivation assay with RT-qPCR readout (SARS-CoV-2 E Gene); type: cell-based; conditions: 1% NCT, 37° C., RT-qPCR (FIG. 1D)
Method: as §1
FIG. 1D presents inactivation of SARS-Cov-2 by NCT. After cell lysis and RNA extraction, one-step RT-qPCR assay was performed using the iTaq™ RT-PCR (BIO-RAD) kit and previously published primers and probes specific for detection of the SARS-CoV-2 E Gene on a CFX96™ real-time system (BIO-RAD). Mean values±SD of genome copies of three independent experiments. Detection limit 2.10 log10 RNA copies/ml (dotted line).

[10] = molecular target: SARS-CoV-2 3C-like proteinase (Severe acute respiratory syndrome coronavirus 2, UniProt P0DTD1); experiment: Structural changes of 3C-like proteinase by NCT, mass spectrometry; type: biochemical; conditions: 1% NCT, 30 min, 37° C.
Excerpt: FIG. 5 presents Chlorination of tyrosines and histidines and oxidation of methionines and cysteines of SARS-CoV-2 3C-like proteinase by NCT.
Seven methionines and four cysteines were oxidized.

SARS-CoV-2 [11] = experiment: Prophylaxis of contact persons with 1% NCT nose/throat spray; type: in vivo, human
Method: NCT may also be applied as nose/throat spray/rinse solution for prevention/prophylaxis of worsening or contagiousity to other persons. Even in case of low or no symptoms, 1% NCT aqueous solution may be used as a nose spray (two-three puffs (about 0.1 ml/puff) per nostril during forced nasal inspiration) and/or throat spray (three-four puffs (about 0.1 ml/puff) in the back of the mouth to the throat). Alternatively, 1% NCT aqueous solution may be used as a nasal rinse (10 ml to 20 ml instilled for 30 seconds up to 1 minute) and/or throat gargling solution (10 ml to 20 ml for 30 seconds up to 1 minute). This may be repeated at least two times per day or after close contact with other persons.
Spouse, person. (Day 7 of spouse's infection) dose time and symptoms: 2:10 PM—No symptoms 8:25 PM—No symptoms. (Day 8 of spouse's infection) dose time and symptoms: 2:40 PM—No symptoms 11:30 PM—No symptoms. (Day 9 of spouse's infection) dose time and symptoms: 11:10 AM—No symptoms 7:15 P. No symptoms.

[12] = after the end of an inhalation of 1.0% NCT, cited from earlier work
[13] = in vivo; cited from earlier work

Cl.N [Ammonium chloride, ammonium chloride, reference compound]
antiviral effect ([1]; ammonium chloride alone, up to 10 min incubation time): no antiviral effect

O=S(=O)(O)CCNCl [NCT, N-chlorotaurine]
time to reduction to the detection limit [2]: ≤ 1 min | log10 reduction of virus ([2]; within 1 min, plaque assay (FIG. 2B)): 6 log10 | incubation time after which a significant reduction of infectious virus particles occurred (SARS-CoV-2 BavPat1; 1.0% NCT in the presence of 5.0% peptone, 37° C. (FIG. 1A)): 5 min | incubation time after which a significant reduction in infectious particles was detected (SARS-CoV-2 BavPat1; NCT in buffered aqueous solution, 37° C., plaque assay (FIG. 1A)): 15 min | PCR of nose and throat smear, positive after cycles (SARS-CoV-2 [3]; Example 1 patient, Day 0, two hours after start of 1% NCT nasal spray and gargling): 30-32 cycles | PCR of throat/nostril swab, positive after cycles (SARS-CoV-2 [3]; Example 1 patient, Day 3, after 1% NCT therapy was stopped): 25 cycles | complaints (SARS-CoV-2 [3]; Example 1 patient, Day 4 to Day 11, after 1% NCT therapy Day 0 to Day 2): no complaints | PCR of nose-throat smear, positive after cycles (SARS-CoV-2 [3]; Example 1 patient, Day 6): 27 cycles | throat and nasal smear control PCR, weakly positive after cycles (SARS-CoV-2 [3]; Example 1 patient, Day 13 (max cycle number 45)): 36.5 cycles | throat and nasal smear control PCR (SARS-CoV-2 [3]; Example 1 patient, Day 19): negative | swab PCR ct value (SARS-CoV-2 [3]; Example 2 patient, Day 1 evening, two hours after dosing, 14 cycles before NCT treatment): 20-22 cycles | swab result (SARS-CoV-2 [3]; Example 2 patient, after 10 days quarantine): swab negative | swab PCR ct value (SARS-CoV-2 [3]; Example 2 patient, evening of day 4, 1% NCT nose spray and gargling 3× daily): 31-34 cycles | swab PCR ct value (SARS-CoV-2 [3]; Example 2 patient, morning of Day 6, 14 hours after the last dosing of NCT): 31-34 cycles | symptoms (SARS-CoV-2 [3]; Example 4 patient, Day 10, 1% NCT nasal and throat spray since Day 4): No symptoms | course of disease during treatment (SARS-CoV-2 [4]; another 20 hospitalized patients, same treatment): no progression of the disease and lung failure was avoided | outcome on leaving the hospital (SARS-CoV-2 [4]; eight hospitalized patients, 3 ml 1% NCT sodium inhaled 3 times a day for 1 week to 9 days via nebulizer): symptom-free or largely symptom-free | reduction of infected cells ([5]; after 1 min (not significant, p=0.085)): 50% | reduction of infected cells ([5]; after 5 min): 20-80% | reduction of infected cells ([5]; after 7 min): 81-91% | reduction of infected cells ([5]; after 10 min): 81-97% | reduction of infected cells ([5]; after 20 min): 96-99% | reduction of infected cells ([5]; after 30 min): > 99% | log10 reduction of virus [6]: 2 log10 | incubation time after which a significant reduction of infectious virus particles occurred [7]: 5 min | incubation time to significant titre reduction (RSV long strain; 0.1% NCT, 37° C.): 15 min | infectious RSV measurable (RSV long strain; 1.0% NCT, after 15 minutes): Almost no detectable amount of infectious RSV | log10 decrease of infectious virus titre (RSV long strain; 1.0% NCT, within 5 minutes, 37° C. (FIG. 3)): 4 log10 | systemic distribution ([8]; human, in vivo): not distributed systemically | adverse effects ([8]; inhaled NCT, humans, phase I, chlorine taste and occasional tickle in the throat): Only minor and transient adverse effects | effect of addition of ammonium chloride (NH4Cl) on activity against influenza viruses ([1]; 0.1% NCT plus 0.1% ammonium chloride versus 0.1% NCT (FIG. 2D)): significantly enhanced | time to reduction to the detection limit ([1]; 1.0% NCT): ≤ 1 min | log10 reduction of virus ([1]; 1.0% NCT, within 1 min, plaque assay (FIG. 2C)): 6 log10 | MTT reduction (inoculated cell culture): 94.1±8.5 | reduction of genome copies [9]: highly significant reduction of genome copies | cysteines oxidized [10]: four | histidines chlorinated [10]: two | methionines oxidized [10]: Seven | tyrosines chlorinated [10]: 3 | infection status of family members (SARS-CoV-2 [11]; Example 2: wife and three teenagers in the same home, 1% NCT nose and throat spray 3 times daily): remained negative | symptoms of spouse (SARS-CoV-2 [11]; Example 4: spouse, Day 7 to Day 9 of husband's infection): No symptoms | infection status of persons with close contact to COVID-19 positive persons (SARS-CoV-2 [11]; several cases, use of the 1% NCT nasal spray): remained negative | further time until active chlorine vanishes completely ([12]; after decrease to traces): 10 min | time for concentration of active chlorine to decrease to traces [12]: ≤ 1 min

Cc1ccc(S(=O)(=O)[N-]Cl)cc1.[Na+] [chloramine T]
effects after inhalative application [13]: asthmatic and inflammatory symptoms
